Legend:
human plasma protein = format: in vitro ADME
[1] = system: CYP1A2, CYP2B6, CYP2C8, CYP2C9, CYP2CI9, or CYP3A4/5; assay: CYP induction in human hepatocytes; format: in vitro ADME
[2] = system: Community-Acquired Bacterial Pneumonia (CABP); assay: Two Phase 3 studies in CABP, clinical cure at TOC (single and integrated/combined); format: in vivo, human; conditions: TOC; for Combined clinical cure rate: combined data of the two CAP studies; for Weighted treatment difference (95% CI), ceftaroline versus ceftriaxone: combined data
Procedure: In both treatment groups of CABP Study 1, two doses of oral clarithromycin (500 mg q12 h), were administered as adjunctive therapy starting on Study Day 1. No adjunctive macrolide therapy was used in CABP Study 2. Patients with new or progressive pulmonary infiltrate(s) on chest radiography and clinical signs and symptoms consistent with CABP with the need for hospitalization and IV therapy were enrolled in the studies. Treatment duration was 5 to 7 days. A switch to oral therapy was not allowed. The Modified Intent-to-Treat Efficacy (MITTE) population, included all patients who received any amount of study drug according to their randomized, treatment group and were in PORT (Pneumonia Outcomes Research Team) Risk Class III or IV.
The primary efficacy endpoint was the clinical response at the Test of Cure (TOC) visit in the co-primary Ce and MITTE populations (Table 4).

[3] = system: community-acquired pneumonia (CAP); assay: Example 4 Phase 3 study, ceftaroline vs ceftriaxone in CAP, efficacy; format: in vivo, human
Excerpt: (§1) The secondary objectives of the study were to evaluate the following: clinical response at end-of-therapy (EOT); the microbiological favorable outcome rate at TOC; the overall (clinical and radiographic) success rate at TOC; the clinical and microbiological response by pathogen at TOC; clinical relapse at late follow-up (LFU); microbiological reinfection/recurrence at LFU; and safety.
(§2) The following criteria were used for evaluation: The primary efficacy outcome measures were the pet-subject clinical cure rate at test-of-cure (TOC) in the CE and MITTE Populations Subjects were considered clinically cured at TOC if they had total resolution of all signs and symptoms of the baseline infection, or improvement of the infection such that no further antimicrobial therapy was necessary.
(§3) Non-inferiority was concluded if the lower limit of the 95% CI was higher than −10%.

[4] = system: community-acquired pneumonia (CAP); assay: Example 5 Phase 3 study, ceftaroline vs ceftriaxone with adjunctive clarithromycin in CAP, efficacy; format: in vivo, human
Excerpt: as §1, with “objective” for “objectives”, “was” for “were”, “following: the” for “following:”
as §2, with “The” for “The following criteria were used for evaluation: The”, “per-subject” for “pet-subject”, “TOC” for “test-of-cure (TOC)”, “Populations.” for “Populations”
as §3

clinical = conditions: human, in vivo

Structure (SMILES): CCO/N=C(\C(=O)N[C@@H]1C(=O)N2C(C(=O)[O-])=C(Sc3nc(-c4cc[n+](C)cc4)cs3)CS[C@H]12)c1nsc(N)n1 [Ceftaroline, ceftaroline]
- binding to human plasma protein (human plasma protein): approximately 20%
- induction of CYP isoenzymes [1]: not inducers
- Combined clinical cure rate ([2]; CE): 387/459 (84.3) %
- Combined clinical cure rate ([2]; ME): 131/154 (85.1) %
- Combined clinical cure rate ([2]; MITTE): 479/580 (82.6) %
- Combined clinical cure rate ([2]; mMITTE): 138/165 (83.6) %
- Weighted treatment difference (95% CI), ceftaroline versus ceftriaxone ([2]; CE): 6.7 (1.6, 11.8) %
- Weighted treatment difference (95% CI), ceftaroline versus ceftriaxone ([2]; CE, listed as ceftaroline): 6.7%
- Weighted treatment difference (95% CI), ceftaroline versus ceftriaxone ([2]; ME): 9.7 (0.7, 18.8) %
- Weighted treatment difference (95% CI), ceftaroline versus ceftriaxone ([2]; ME, listed as ceftaroline): 9.7%
- Weighted treatment difference (95% CI), ceftaroline versus ceftriaxone ([2]; MITTE): 6.0 (1.4, 10.7) %
- Weighted treatment difference (95% CI), ceftaroline versus ceftriaxone ([2]; mMITTE): 8.7 (−0.0, 17.4) %
- Weighted treatment difference (95% CI), ceftaroline versus ceftriaxone ([2]; mMITTE, listed as ceftaroline): 8.7%
- Difference (ceftaroline minus ceftriaxone), Clinical Cure Rate at EOT ([3]; Example 4, CE): 6.0%
- Difference (ceftaroline minus ceftriaxone), Clinical Success at TOC ([3]; Example 4, CE): 4.9%
- Clinical Success at the TOC Visit ([3]; Example 4, CE population): 193 (82.1) %
- Per-subject Clinical Cure Rate at the EOT Visit ([3]; Example 4, CE population): 202 (86.0) %
- Difference (ceftaroline minus ceftriaxone), Favorable Microbiological Outcome at TOC ([3]; Example 4, ME): 1.8%
- Favorable Microbiological Outcome at the TOC Visit ([3]; Example 4, ME population): 72 (84.7) %
- Difference (ceftaroline minus ceftriaxone), Clinical Cure Rate at EOT ([3]; Example 4, MITTE): 7.4%
- Difference (ceftaroline minus ceftriaxone), Clinical Success at TOC ([3]; Example 4, MITTE): 5.9%
- Clinical Success at the TOC Visit ([3]; Example 4, MITTE population): 235 (81.3) %
- Per-subject Clinical Cure Rate at the EOT Visit ([3]; Example 4, MITTE population): 249 (86.2) %
- Difference (ceftaroline minus ceftriaxone), Favorable Microbiological Outcome at TOC ([3]; Example 4, mMITTE): 0.4%
- Favorable Microbiological Outcome at the TOC Visit ([3]; Example 4, mMITTE population): 74 (82.2) %
- Difference (ceftaroline minus ceftriaxone), Clinical Cure Rate at EOT ([4]; Example 5, CE): 7.6%
- Difference (ceftaroline minus ceftriaxone), Clinical Success at TOC ([4]; Example 5, CE): 8.4%
- Clinical Success at the TOC Visit ([4]; Example 5, CE population): 194 (86.6) %
- Per-subject Clinical Cure Rate at the EOT Visit ([4]; Example 5, CE population): 197 (87.9) %
- Difference (ceftaroline minus ceftriaxone), Favorable Microbiological Outcome at TOC ([4]; Example 5, ME): 11.0%
- Favorable Microbiological Outcome at the TOC Visit ([4]; Example 5, ME population): 62 (89.9) %
- Difference (ceftaroline minus ceftriaxone), Clinical Cure Rate at EOT ([4]; Example 5, MITTE): 6.3%
- Difference (ceftaroline minus ceftriaxone), Clinical Success at TOC ([4]; Example 5, MITTE): 6.2%
- Clinical Success at the TOC Visit ([4]; Example 5, MITTE population): 244 (83.8) %
- Per-subject Clinical Cure Rate at the EOT Visit ([4]; Example 5, MITTE population): 253 (86.9) %
- Difference (ceftaroline minus ceftriaxone), Favorable Microbiological Outcome at TOC ([4]; Example 5, mMITTE): 9.3%
- Favorable Microbiological Outcome at the TOC Visit ([4]; Example 5, mMITTE population): 66 (88.0) %
- clearance (clinical; CL/Fm): 160 mL/min
- half-life (clinical; mean plasma terminal elimination half-life): ~2.5 h
- half-life (clinical; t1/2): 1.6 h
